Common to all, as to assay type: cell-based
The target in assay [1] is AXL (phospho-AXL, Gas6-stimulated A-172 glioblastoma cells) (Homo sapiens (Human), UniProt P30530). Put plainly: AXL autophosphorylation ELISA in A-172 cells (Example E). Particulars: cellular activity; AXL autophosphorylation ELISA in A-172 cells; read-out: Axl IC50. A digest of the protocol:
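Phospho-AXL in lysates was quantified by ELISA, normalised to DMSO (100%) and reference inhibitor (0%) controls. IC50 by 4-parameter logistic fit.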

The target in assay [2] is Mer (phospho-Mer, MERTK-transfected 293A cells) (Homo sapiens (Human), UniProt Q12866). Put plainly: Mer autophosphorylation ELISA in transient transfected 293A cells (Example H). Particulars: cellular activity; Mer autophosphorylation ELISA in transient transfected 293A cells. In a few lines: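 Inhibition of cellular Mer autophosphorylation is determined in 293A cells transiently expressing human MERTK after 1 h compound exposure (8 concentrations, serum-free, 0.3% DMSO). Phospho-Mer in clarified lysates is measured by ELISA, with DMSO and reference-inhibitor wells defining the 100% and 0% activity limits.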

Assay [3] has as its target KDR (phospho-KDR, VEGF165-stimulated HUVEC cells) (Homo sapiens (Human), UniProt P35968). The assay can be described thus: KDR autophosphorylation ELISA in HUVEC cells (Example G). The settings on record: cellular activity; KDR autophosphorylation ELISA in HUVEC cells. A digest of the protocol: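 HUVEC cells, serum-starved 24 h, were treated 1 h with an 8-point compound dilution (0.3% DMSO) and then stimulated with 100 ng/mL VEGF165 for 5 min. Phospho-KDR in lysates was quantified by sandwich ELISA against a phospho-KDR standard. IC50 from a 4-parameter logistic fit, normalised between stimulated DMSO and unstimulated controls.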

Assay [4] addresses Met (phospho-Met, HGF-stimulated PC-3 prostate cancer cells) (Homo sapiens (Human), UniProt P08581). The assay can be described thus: Met autophosphorylation ELISA in PC-3 cells (Example F). The settings on record: cellular activity; Met autophosphorylation ELISA in PC-3 cells; read-out: c-Met IC50. A digest of the protocol: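 Compounds were tested on HGF-stimulated PC-3 cells. After 24 h culture and 3 h serum starvation, cells got compound for 1 h and 100 ng/mL HGF for 10 min, and Met tyrosine phosphorylation was measured by ELISA.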

pIC50: −log10 of the molar value.

Sequence of Met (phospho-Met, HGF-stimulated PC-3 prostate cancer cells) (P08581 25-1390): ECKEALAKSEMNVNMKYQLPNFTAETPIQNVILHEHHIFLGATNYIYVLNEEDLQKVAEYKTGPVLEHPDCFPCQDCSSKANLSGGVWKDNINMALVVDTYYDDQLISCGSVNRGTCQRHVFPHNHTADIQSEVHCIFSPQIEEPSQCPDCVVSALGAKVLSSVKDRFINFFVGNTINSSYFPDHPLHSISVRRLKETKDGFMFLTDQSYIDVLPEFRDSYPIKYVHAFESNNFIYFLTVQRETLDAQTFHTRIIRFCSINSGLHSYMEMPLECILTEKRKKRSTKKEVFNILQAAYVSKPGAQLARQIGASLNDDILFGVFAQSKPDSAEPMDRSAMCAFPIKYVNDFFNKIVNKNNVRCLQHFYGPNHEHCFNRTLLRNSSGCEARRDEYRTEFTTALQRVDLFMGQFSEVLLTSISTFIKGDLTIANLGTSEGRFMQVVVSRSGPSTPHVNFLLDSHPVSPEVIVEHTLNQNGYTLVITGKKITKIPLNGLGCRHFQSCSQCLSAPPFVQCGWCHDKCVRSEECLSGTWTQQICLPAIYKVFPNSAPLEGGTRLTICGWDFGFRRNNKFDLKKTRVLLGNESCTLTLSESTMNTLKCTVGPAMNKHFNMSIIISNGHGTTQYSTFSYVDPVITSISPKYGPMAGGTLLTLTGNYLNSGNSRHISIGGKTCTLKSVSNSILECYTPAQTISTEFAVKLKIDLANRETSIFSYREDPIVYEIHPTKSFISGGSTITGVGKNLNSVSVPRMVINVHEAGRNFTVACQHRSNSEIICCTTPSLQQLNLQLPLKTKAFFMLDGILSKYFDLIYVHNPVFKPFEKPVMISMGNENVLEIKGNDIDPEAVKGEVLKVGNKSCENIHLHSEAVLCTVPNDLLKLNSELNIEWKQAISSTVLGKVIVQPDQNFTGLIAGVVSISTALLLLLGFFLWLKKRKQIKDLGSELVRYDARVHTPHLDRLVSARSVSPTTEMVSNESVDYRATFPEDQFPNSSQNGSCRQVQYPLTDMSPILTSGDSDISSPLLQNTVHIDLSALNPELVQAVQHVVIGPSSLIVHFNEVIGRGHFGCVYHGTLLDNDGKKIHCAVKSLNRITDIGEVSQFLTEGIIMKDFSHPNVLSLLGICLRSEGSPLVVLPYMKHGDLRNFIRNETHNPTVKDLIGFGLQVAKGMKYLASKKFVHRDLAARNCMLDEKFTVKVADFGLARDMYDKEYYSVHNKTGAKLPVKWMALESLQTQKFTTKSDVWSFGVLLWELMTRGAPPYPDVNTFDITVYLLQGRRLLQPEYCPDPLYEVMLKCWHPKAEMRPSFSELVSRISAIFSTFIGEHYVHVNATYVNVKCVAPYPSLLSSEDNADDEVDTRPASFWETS
Sequence of KDR (phospho-KDR, VEGF165-stimulated HUVEC cells) (P35968 20-1356): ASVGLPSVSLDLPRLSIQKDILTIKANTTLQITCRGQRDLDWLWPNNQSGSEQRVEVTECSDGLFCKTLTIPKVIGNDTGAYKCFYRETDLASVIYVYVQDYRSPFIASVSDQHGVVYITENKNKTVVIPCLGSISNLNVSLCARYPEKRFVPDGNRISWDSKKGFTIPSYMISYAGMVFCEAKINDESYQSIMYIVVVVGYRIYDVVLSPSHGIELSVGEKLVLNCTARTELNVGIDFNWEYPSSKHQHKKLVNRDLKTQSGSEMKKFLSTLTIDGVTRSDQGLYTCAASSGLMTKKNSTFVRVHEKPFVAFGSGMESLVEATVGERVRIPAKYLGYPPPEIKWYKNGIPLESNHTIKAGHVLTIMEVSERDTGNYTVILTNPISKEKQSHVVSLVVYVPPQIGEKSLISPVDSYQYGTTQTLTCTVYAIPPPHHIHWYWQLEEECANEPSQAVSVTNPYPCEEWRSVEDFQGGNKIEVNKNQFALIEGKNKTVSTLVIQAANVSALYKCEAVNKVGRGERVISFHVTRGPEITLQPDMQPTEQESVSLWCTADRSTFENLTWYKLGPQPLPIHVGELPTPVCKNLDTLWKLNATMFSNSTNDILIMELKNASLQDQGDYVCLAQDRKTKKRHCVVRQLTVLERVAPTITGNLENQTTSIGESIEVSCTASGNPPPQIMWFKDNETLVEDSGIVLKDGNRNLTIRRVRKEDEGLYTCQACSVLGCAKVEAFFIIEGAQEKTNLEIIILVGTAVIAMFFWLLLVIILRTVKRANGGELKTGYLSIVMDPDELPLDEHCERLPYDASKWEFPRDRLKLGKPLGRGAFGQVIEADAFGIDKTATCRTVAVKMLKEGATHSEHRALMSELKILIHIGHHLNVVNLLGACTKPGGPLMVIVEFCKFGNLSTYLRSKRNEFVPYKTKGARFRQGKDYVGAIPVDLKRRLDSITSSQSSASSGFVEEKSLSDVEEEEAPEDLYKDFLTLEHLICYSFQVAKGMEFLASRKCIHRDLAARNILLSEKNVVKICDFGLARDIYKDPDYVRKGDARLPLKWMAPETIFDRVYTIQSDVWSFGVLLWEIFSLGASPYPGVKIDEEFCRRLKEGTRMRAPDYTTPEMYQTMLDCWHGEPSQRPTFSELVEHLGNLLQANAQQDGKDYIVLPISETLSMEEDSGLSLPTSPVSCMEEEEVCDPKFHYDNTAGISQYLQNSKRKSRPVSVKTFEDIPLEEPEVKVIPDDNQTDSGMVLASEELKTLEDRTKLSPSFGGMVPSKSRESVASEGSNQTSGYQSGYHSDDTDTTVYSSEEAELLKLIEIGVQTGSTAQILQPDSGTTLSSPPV
Sequence of Mer (phospho-Mer, MERTK-transfected 293A cells) (Q12866 21-999): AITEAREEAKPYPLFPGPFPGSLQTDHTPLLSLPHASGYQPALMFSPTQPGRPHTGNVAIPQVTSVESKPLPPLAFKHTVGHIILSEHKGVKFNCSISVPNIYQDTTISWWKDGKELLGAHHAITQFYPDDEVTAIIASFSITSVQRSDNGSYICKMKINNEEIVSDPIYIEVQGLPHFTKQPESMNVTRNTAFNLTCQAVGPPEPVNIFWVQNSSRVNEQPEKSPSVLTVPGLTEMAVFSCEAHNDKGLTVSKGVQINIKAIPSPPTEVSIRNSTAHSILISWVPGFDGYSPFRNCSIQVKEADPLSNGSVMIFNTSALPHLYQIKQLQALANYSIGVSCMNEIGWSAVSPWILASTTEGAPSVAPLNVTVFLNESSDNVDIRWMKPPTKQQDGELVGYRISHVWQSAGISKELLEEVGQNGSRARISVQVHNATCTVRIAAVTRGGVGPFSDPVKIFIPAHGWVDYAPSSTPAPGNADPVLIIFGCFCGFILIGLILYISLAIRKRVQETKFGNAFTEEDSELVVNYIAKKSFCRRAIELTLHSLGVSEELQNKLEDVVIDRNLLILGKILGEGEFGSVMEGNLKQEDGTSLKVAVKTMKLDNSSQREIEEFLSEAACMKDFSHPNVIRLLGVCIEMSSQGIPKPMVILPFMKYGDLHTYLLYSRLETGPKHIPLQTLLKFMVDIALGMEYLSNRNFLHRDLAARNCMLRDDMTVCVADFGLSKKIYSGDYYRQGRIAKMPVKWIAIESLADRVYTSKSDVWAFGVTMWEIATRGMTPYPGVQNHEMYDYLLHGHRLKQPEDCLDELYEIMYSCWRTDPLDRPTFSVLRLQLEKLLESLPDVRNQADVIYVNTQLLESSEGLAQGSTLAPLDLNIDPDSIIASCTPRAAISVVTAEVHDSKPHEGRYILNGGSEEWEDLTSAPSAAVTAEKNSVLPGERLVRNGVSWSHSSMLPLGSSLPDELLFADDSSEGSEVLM
Sequence of AXL (phospho-AXL, Gas6-stimulated A-172 glioblastoma cells) (P30530 26-894): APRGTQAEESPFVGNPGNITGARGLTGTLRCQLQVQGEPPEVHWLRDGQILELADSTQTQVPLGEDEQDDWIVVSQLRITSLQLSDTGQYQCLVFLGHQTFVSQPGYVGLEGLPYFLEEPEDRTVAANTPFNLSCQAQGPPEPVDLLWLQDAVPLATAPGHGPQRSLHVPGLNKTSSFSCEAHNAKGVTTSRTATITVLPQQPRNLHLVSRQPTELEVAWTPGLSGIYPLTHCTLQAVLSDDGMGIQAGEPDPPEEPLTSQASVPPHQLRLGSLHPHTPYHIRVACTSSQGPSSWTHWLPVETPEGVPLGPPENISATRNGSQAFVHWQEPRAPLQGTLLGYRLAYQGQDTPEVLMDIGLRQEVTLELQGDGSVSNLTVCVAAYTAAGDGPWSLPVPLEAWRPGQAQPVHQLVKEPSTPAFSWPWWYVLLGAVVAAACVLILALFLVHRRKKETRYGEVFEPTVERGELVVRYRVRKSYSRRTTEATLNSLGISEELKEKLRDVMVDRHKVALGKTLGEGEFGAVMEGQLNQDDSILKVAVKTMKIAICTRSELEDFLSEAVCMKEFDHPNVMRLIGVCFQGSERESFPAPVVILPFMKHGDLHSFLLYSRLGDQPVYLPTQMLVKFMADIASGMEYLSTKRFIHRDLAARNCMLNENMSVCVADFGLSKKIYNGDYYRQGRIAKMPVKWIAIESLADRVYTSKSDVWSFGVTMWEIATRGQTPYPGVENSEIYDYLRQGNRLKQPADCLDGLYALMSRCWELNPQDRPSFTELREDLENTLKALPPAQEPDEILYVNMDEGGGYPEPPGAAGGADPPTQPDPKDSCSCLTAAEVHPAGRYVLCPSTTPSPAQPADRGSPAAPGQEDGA

On to `COc1cc2nccc(Oc3ccc(NC(=O)c4c(C)c(C)cn(-c5ccc(F)cc5)c4=O)cc3F)c2nc1OC` [Compound 679, N-[4-[(6,7-dimethoxy-1,5-naphthyridin-4-yl)oxy]-3-fluorophenyl]-1-(4-fluorophenyl)-4,5-dimethyl-2-oxopyridine-3-carboxamide], for which the negative logarithm of the IC50 (pIC50) in assay [1], in assay [2], in assay [3] and in assay [4] was over 7.00 throughout.

Consider `COc1cc2nccc(Oc3ccc(NC(=O)c4c(C)c(C)cn(-c5ccc(F)cc5)c4=O)cc3)c2nc1OC` [Compound 680, N-[4-[(6,7-dimethoxy-1,5-naphthyridin-4-yl)oxy]phenyl]-1-(4-fluorophenyl)-4,5-dimethyl-2-oxopyridine-3-carboxamide], for which the negative-log IC50 (pIC50) in assay [1], in assay [2], in assay [3] and in assay [4] was over 7.00 throughout.

Take `COc1cc2nccc(Oc3ccc(NC(=O)c4c(C)nc(C)c(-c5ccc(F)cc5C)c4O)cc3)c2nc1OC` [Compound 681, N-[4-[(6,7-dimethoxy-1,5-naphthyridin-4-yl)oxy]phenyl]-5-(4-fluoro-2-methylphenyl)-4-hydroxy-2,6-dimethylpyridine-3-carboxamide]: the negative logarithm of the IC50 (pIC50) in assay [1], in assay [2], in assay [3] and in assay [4] was over 7.00 in each case.

Consider `COc1cnc2c(Oc3ccc(NC(=O)c4c(C)nc(C)c(-c5ccc(F)cc5C)c4O)cc3)ccnc2c1` [Compound 682, 5-(4-fluoro-2-methylphenyl)-4-hydroxy-N-[4-[(7-methoxy-1,5-naphthyridin-4-yl)oxy]phenyl]-2,6-dimethylpyridine-3-carboxamide], for which the negative-log IC50 (pIC50) in assay [1], in assay [2], in assay [3] and in assay [4] was over 7.00 in each case.

Consider `COCCOc1cnc2c(Oc3ccc(NC(=O)c4c(C)nc(C)c(-c5ccc(F)cc5C)c4O)cc3F)ccnc2c1` [Compound 683, N-[3-fluoro-4-[[7-(2-methoxyethoxy)-1,5-naphthyridin-4-yl]oxy]phenyl]-5-(4-fluoro-2-methylphenyl)-4-hydroxy-2,6-dimethylpyridine-3-carboxamide], for which the pIC50 in assay [1], in assay [2], in assay [3] and in assay [4] was over 7.00 each time.

Take `COc1cc2nccc(Oc3ccc(NC(=O)c4nc(C)cn(-c5ccc(F)cc5)c4=O)cc3F)c2nc1OC` [Compound 684, N-[4-[(6,7-dimethoxy-1,5-naphthyridin-4-yl)oxy]-3-fluorophenyl]-4-(4-fluorophenyl)-6-methyl-3-oxopyrazine-2-carboxamide]: the negative-log IC50 (pIC50) was over 7.00 in assay [1], over 7.00 in assay [2], under 6.52 in assay [3] and over 7.00 in assay [4].

With `COc1cnc2c(Oc3ccc(NC(=O)c4cn(C)c(C5CC5)c(-c5ccc(F)cc5)c4=O)cc3F)ccnc2c1` [Compound 685, 6-cyclopropyl-N-[3-fluoro-4-[(7-methoxy-1,5-naphthyridin-4-yl)oxy]phenyl]-5-(4-fluorophenyl)-1-methyl-4-oxopyridine-3-carboxamide], the pIC50 is over 7.00 in assay [1], over 7.00 in assay [2], under 6.52 in assay [3] and over 7.00 in assay [4].

With `COc1cnc2c(Oc3ccc(NC(=O)c4c(C)nc(C)c(-c5ccc(F)cc5OC)c4O)cc3F)ccnc2c1` [Compound 686, N-[3-fluoro-4-[(7-methoxy-1,5-naphthyridin-4-yl)oxy]phenyl]-5-(4-fluoro-2-methoxyphenyl)-4-hydroxy-2,6-dimethylpyridine-3-carboxamide], the negative-log IC50 (pIC50) in assay [1], in assay [2], in assay [3] and in assay [4] was over 7.00 in each case.

On to `COc1cnc2c(Oc3ccc(NC(=O)c4c(C)nc(C)c(-c5ccc(F)c(F)c5)c4O)cc3F)ccnc2c1` [Compound 687, 5-(3,4-difluorophenyl)-N-[3-fluoro-4-[(7-methoxy-1,5-naphthyridin-4-yl)oxy]phenyl]-4-hydroxy-2,6-dimethylpyridine-3-carboxamide], for which the pIC50 in assay [1], in assay [2], in assay [3] and in assay [4] was over 7.00 each time.

On to `COc1cnc2c(Oc3ccc(NC(=O)c4c(C)nc(C)c(-c5ccc(F)c(OC)c5)c4O)cc3F)ccnc2c1` [Compound 688, N-[3-fluoro-4-[(7-methoxy-1,5-naphthyridin-4-yl)oxy]phenyl]-5-(4-fluoro-3-methoxyphenyl)-4-hydroxy-2,6-dimethylpyridine-3-carboxamide], for which the negative logarithm of the IC50 (pIC50) in assay [1], in assay [2], in assay [3] and in assay [4] was over 7.00 each time.

As for `COc1cnc2c(Oc3ccc(NC(=O)c4c(C)nc(C)c(-c5ccc(F)c(C)c5)c4O)cc3F)ccnc2c1` [Compound 689, N-[3-fluoro-4-[(7-methoxy-1,5-naphthyridin-4-yl)oxy]phenyl]-5-(4-fluoro-3-methylphenyl)-4-hydroxy-2,6-dimethylpyridine-3-carboxamide], the negative logarithm of the IC50 (pIC50) in assay [1], in assay [2], in assay [3] and in assay [4] was over 7.00 in each case.

As to `COc1cnc2c(Oc3ccc(NC(=O)c4c(C)nc(C)c(-c5ccc(C(C)C)cc5)c4O)cc3F)ccnc2c1` [Compound 690, N-[3-fluoro-4-[(7-methoxy-1,5-naphthyridin-4-yl)oxy]phenyl]-4-hydroxy-2,6-dimethyl-5-(4-propan-2-ylphenyl)pyridine-3-carboxamide], the negative-log IC50 (pIC50) is under 6.52 in assay [1], 6.52 to 7.00 in assay [2], under 6.52 in assay [3] and under 6.52 in assay [4].

Turning to `COc1ccc(-c2c(C)nc(C)c(C(=O)Nc3ccc(Oc4ccnc5cc(OC)cnc45)c(F)c3)c2O)c(F)c1` [Compound 691, N-[3-fluoro-4-[(7-methoxy-1,5-naphthyridin-4-yl)oxy]phenyl]-5-(2-fluoro-4-methoxyphenyl)-4-hydroxy-2,6-dimethylpyridine-3-carboxamide], the pIC50 in assay [1] is 6.52 to 7.00; in assay [2], over 7.00; in assay [3], over 7.00; in assay [4], over 7.00.

`COc1cnc2c(Oc3ccc(NC(=O)c4c(C)nc(C)c(-c5ccc(OC)c(C)c5)c4O)cc3F)ccnc2c1` [Compound 692, N-[3-fluoro-4-[(7-methoxy-1,5-naphthyridin-4-yl)oxy]phenyl]-4-hydroxy-5-(4-methoxy-3-methylphenyl)-2,6-dimethylpyridine-3-carboxamide]: the pIC50 in assay [1] is 6.52 to 7.00; in assay [2], over 7.00; in assay [3], over 7.00; in assay [4] it was over 7.00.

Take `COc1cnc2c(Oc3ccc(NC(=O)c4c(C)nc(C)c(-c5ccc(OC)c(F)c5)c4O)cc3F)ccnc2c1` [Compound 693, N-[3-fluoro-4-[(7-methoxy-1,5-naphthyridin-4-yl)oxy]phenyl]-5-(3-fluoro-4-methoxyphenyl)-4-hydroxy-2,6-dimethylpyridine-3-carboxamide]: the pIC50 in assay [1] is under 6.52; in assay [2], over 7.00; in assay [3] it was over 7.00; in assay [4] it was 6.52 to 7.00.

Take `COc1cnc2c(Oc3ccc(NC(=O)c4c(C)nc(C)c(-c5ccc(S(C)(=O)=O)cc5)c4O)cc3F)ccnc2c1` [Compound 694, N-[3-fluoro-4-[(7-methoxy-1,5-naphthyridin-4-yl)oxy]phenyl]-4-hydroxy-2,6-dimethyl-5-(4-methylsulfonylphenyl)pyridine-3-carboxamide]: the pIC50 in assay [1] was under 6.52; in assay [2], over 7.00; in assay [3], under 6.52; in assay [4] it was 6.52 to 7.00.

With `COc1ccc(-c2c(C)nc(C)c(C(=O)Nc3ccc(Oc4ccnc5cc(OC)cnc45)c(F)c3)c2O)c(OC)c1` [Compound 695, 5-(2,4-dimethoxyphenyl)-N-[3-fluoro-4-[(7-methoxy-1,5-naphthyridin-4-yl)oxy]phenyl]-4-hydroxy-2,6-dimethylpyridine-3-carboxamide], the pIC50 in assay [1] is under 6.52; in assay [2], over 7.00; in assay [3] it was over 7.00; in assay [4] it was over 7.00.

For `COc1ccc(-c2c(C)ncc(C(=O)Nc3ccc(Oc4ccnc5cc(OC)cnc45)c(F)c3)c2O)c(OC)c1` [Compound 696, 5-(2,4-dimethoxyphenyl)-N-[3-fluoro-4-[(7-methoxy-1,5-naphthyridin-4-yl)oxy]phenyl]-4-hydroxy-6-methylpyridine-3-carboxamide], the negative logarithm of the IC50 (pIC50) in assay [1] was under 6.52; in assay [2] it was over 7.00; in assay [3], over 7.00; in assay [4] it was 6.52 to 7.00.
